Data taken from patent US20070203215A1, “Methods & Compositions For Enhancing Pharmaceutical Treatments” (Taiji Biomedical, Inc., priority 1999, published 2007).
Values joined by “and” are separate entries in the source; they are usually repeats but may differ in a detail not shown here. Equal entries are not always repeated. Each block holds one compound with its values, some of them ahead of it.

How the values were obtained:
[1] = Enhancement of the oral bioavailability of paclitaxel and docetaxel in rats; format: in vivo; conditions: male, Sprague-Dawley, rat, plasma, 10 mg/kg, Drug alone (10 mg/kg) oral; for AUC(0-t): read-out: AUC0-8
Protocol: In a further example, separate groups of eight male Sprague-Dawley rats (250-300 g body weight) with cannulae inserted into the jugular vein were purchased from Harlan-Sprague Dawley (Madison, Wis.). Animals were allowed free movement and access to water but were fasted for at least 8 h prior to the dose until study completion. […] Immediately prior to administration the mixture was diluted in saline to provide a paclitaxel or docetaxel concentration of 1mg/ml. Animals were then administered 10 μl/g body weight by oral gavage.
Serial blood samples (500 μl) were drawn prior to each dose (time 0) and at 0.5, 1, 2, 3, 4, 6 and 8 h through a cannula inserted into the jugular vein. The blood was collected into Microtainer® tubes containing EDTA anticoagulant. Whole blood was centrifuged under refrigeration at 2800 rpm for 10-20 minutes. Plasma samples were stored at −20° C. until analysis using a validated HPLC-MS method. Maximum plasma paclitaxel concentration (Cmax) and time to achieve this concentration (Tmax) were measured from concentration vs. time profiles. Area under the concentration vs. time curve from 0-8 hours (AUC0-8) was calculated using the linear and log trapezoidal methods in the rising and declining phases of the concentration vs. time curve respectively.

[2] = Blood-brain barrier penetration of loperamide, mouse hot-plate test; format: in vivo, mice; conditions: loperamide alone, i.v. 1-16 mg/kg
Excerpt: These increases were dose dependent with respect to loperamide.

[3] = Oral paclitaxel bioavailability enhancement in rats (mesylate salt); format: in vivo; conditions: male, Sprague Dawley, rat, plasma, Group 2: paclitaxel 40 mg/kg p.o. + vehicle
Protocol: A total of 21 male Sprague Dawley rats were used. Animals were approximately 8 weeks of age at arrival and weighed ca 327-359 g.
Following analysis of paclitaxel, all remaining plasma were tested for a determination of the Formula 2 compound concentration.
Plasma samples were analyzed for unchanged paclitaxel using a liquid chromatography/mass spectroscopy (“LC/MS”) assay. […] The highest observable concentration was used as the peak concentration (Cmax). Time to Cmax was denoted as Tmax. […] The area under the plasma concentration curve extrapolated to infinity (AUC(I)) was calculated as the sum of AUC(0-t) plus the ratio of the last plasma concentration to the elimination rate constant. The terminal elimination constant (K) was calculated from the last 3 non-zero points of the log-linear regression. Half-life (tot) was determined by dividing 0.693 by K. The apparent plasma clearance (CL/F) was calculated for paclitaxel by dividing the nominal dose administered by AUC(I). […] Where values were below the limit of quantification, zero was used for pharmacokinetic analysis. Statistical analysis consisted of a Student-T-test with Two-sample unequal variance approximation and was performed on AUC90-t) and Cmax values to compare the Formula 2 compound treated animals vs. the corresponding vehicle treated animals.

MDA/LCC6^MDR1 tumors = experiment: In vivo antitumor efficacy, orthotopic MDA/LCC6^MDR1 tumors; parameters: species or system SCID/RAG2 mice; conditions: single agent alone; paclitaxel 12 mg/kg i.v.; Formula 2 free base 30 mg/kg p.o.
Protocol: Anti-tumor efficacy experiments with orthotopic MDA/LCC6 and MDA/LCC6^MDR1 tumors were conducted in female SCID/RAG2 mice. Ascites propagated cells (2×10^6 in 50 μl) were injected into mammary fat pads bilaterally on day 0 before randomization into groups of 5 mice per group. Paclitaxel (12 mg/kg/dose) was administered QD i.v. (tail vein) in 200 μl saline/Cremophor/ethanol (8/1/1 by volume) on days 5, 12, 19, and 26. The compound of Formula 2-free base (30 mg/kg/dose) was administered BID p.o. by gavage in 100 μl PEG 400/Tween 20 (9/1 by volume) on days 4-6, 11-13, 18-20, and 25-27. Mean body weights were recorded at least every other day. Tumor weight was monitored approximately every other day by caliper measurements and calculated according to the formula (Tumor weight =(length×width^2)÷2). This conversion formula was verified by comparing the calculation derived tumor weights to excised and weighed tumors. Animals bearing ulcerated tumors or where tumor weight exceeded 10% of the animal's body weight were terminated. The weights of the bilateral tumors were averaged for each mouse and mean tumor weights for each treatment group±standard error of the mean were calculated. Statistical analysis was carried out by Mann-Whitney test using GraphPad Prism software (San Diego, Calif.).
The compound of Formula 2 was administered the afternoon before, 2 hours before and 6 hours after each paclitaxel dose. The ability of orally administered Formula 2 compound to reverse MDR in solid tumors in vivo was assessed with the MDA/LCC6^MDR1 model. Because the compound of Formula 2 produced no effect on paditaxel blood levels, focus on up-front therapy (for naive animals) or minimal residual disease models was maintained, as opposed to established tumors. MDA/LCC6^MDR1 cells that express P-gp were resistant to paclitaxel treatment in vitro and this resistance was reversed by the compound of Formula 2 (FIG. 1). […] Similar results were obtained in three independent experiments with two different strains of immunocompromised mice (SCID/RAG-2 and athymic). […]

tumor-bearing mice = conditions: 20 mg/kg paclitaxel alone once per week
[4] = single agent + vehicle; paclitaxel 24 mg/kg i.v. Q5D x6 + 36 mg/kg i.v. Q5D x2; Formula 2 compound 30 mg/kg p.o. afternoon before and BID day of treatments
Protocol: Non-tumor bearing athymic mice were treated with the compound of Formula 2 and (or) paclitaxel as described.

[5] = Saquinavir in rat cerebrospinal fluid and brain after oral ONT-093 or vehicle; format: in vivo, Sprague Dawley rats; conditions: Group 4: after vehicle, 30 min after saquinavir dose, individual animals 4001-4004
Protocol: (§1) Blood samples (ca 0.3 mL) were collected from 8 selected rats by jugular venipuncture during slight anesthesia pre-dose and at 0.25, 0.5, 1, 2, 4 and 8 post-dose (saquinavir dose). Cerebrospinal fluid (CSF) and brain tissue were collected terminally from the remaining 8 rats at ca 30 min following administration of the dose of saquinavir. Blood samples were collected into tubes containing EDTA and placed on wet ice pending centrifugation. Plasma, CSF and brain tissue samples were stored at ca −80° C. until analysis of saquinavir by LC/MS. The vehicle used was polyethylene glycol (PEG-400)1 Tween 20 (9:1; v:v).
(§2) A total of 16 male Sprague Dawley rats were received from Charles River Canada (Saint-Constant, Quebec). Animals were approximately 9 weeks of age at arrival and weighed ca 312-340 g. Four males were randomly assigned to each of Groups 1, 2, 3 and 4. On the day of dosing and following an overnight fast, animals were weighed (ca 305-323 g) and were administered their respective combination of doses. Animals of Groups 1 and 3 received a single oral dose of ONT-093 (20 mg/kg) by gavage at a dose volume of 2 mL/kg. Animals of Groups 2 and 4 received a single oral dose of the vehicle by gavage at a dose volume of 2 mL/kg. Approximately 30 min following administration of either ONT-093 or the vehicle, all animals received a single oral dose of saquinavir (20 mg/kg) by gavage at a dose volume of 1 mL/kg.
(§3) Following administration of saquinavir, blood samples (ca 0.3 mL in EDTA) were obtained from all rats of Groups 1 and 2 by jugular venipuncture during anesthesia with isoflurane (Ohmeda Pharmaceutical Products) at each of the following time-points: pre-dose (prior to administration of ONT-093 or vehicle) and 0.25, 0.5, 1, 2, 4 and 8 hr post-dose. Following administration of saquinavir, CSF was obtained from all animals of Groups 3 and 4 at 30 min following dose administration. CSF was collected (in tubes containing no anticoagulant) from the cistema magna during anesthesia with isoflurane. Following CSF collection, the animals were sacrificed by exsanguination via puncture of the vena cava and the brain was harvested from all these rats. Immediately following collection, all samples (blood, CSF and brain) were placed on ice until further processing or storage. Blood samples were centrifuged (ca 3080 g at ca 4° C. for 10 min) and the resulting plasma samples were stored at ca −80° C. pending analysis. CSF samples and brains were stored at ca −80° C. pending analysis.
(§4) Plasma samples, CSF samples and brains were analyzed for unchanged saquinavir using an LC/MS assay. Pharmacokinetic analysis was performed on plasma concentrations using the PhAST Software Program, Version 2.2-00 (Phoenix International Life Sciences Inc.). The highest observable concentration was assumed to be the peak concentration (Cmax); Time to Cmax was denoted Tmax. The area under the plasma concentration versus time-curve from time zero to the last measurable concentration [AUC(tf] was calculated by the linear trapezoidal method. Where applicable, numerical values were subjected to calculation of group means and % CV. Student-T-test with Satterthwaite approximation was performed on AUC and Cmax values to compare ONT-093 treated animals versus vehicle treated animals using SAS software program, Version 6.12 (SAS Institute Inc., Gary, N.C.). Where values were below limit of quantification, zero was used for pharmacokinetic analysis. The bioavailability (F) of saquinavir when administered with ONT-093 was calculated relative to the AUC values obtained from the animals receiving saquinavir following administration of the vehicle.

in vivo = conditions: male, Sprague Dawley, rat; for concentration at 2 hr: 2 hr Post-Dose
Protocol: as §1, §2, §3, §4

[6] = Clinical signs after saquinavir dose; format: in vivo, Sprague Dawley rats
Protocol: This clinical sign was no longer observable approximately 30 to 60 min after it was first observed.

Cmax ([1]; control of the OCFB series): 37 ng/mL
AUC(0-t) ([1]; control of the OCFB series): 32 ng·h/mL
Cmax ([1]; control of the OCM series): 30 ng/mL
AUC(0-t) ([1]; control of the OCM series): 69 ng·h/mL
SMILES: CC(=O)O[C@@]12CO[C@@H]1C[C@H](O)[C@@]1(C)C(=O)[C@H](O)C3=C(C)[C@@H](OC(=O)[C@H](O)[C@@H](NC(=O)OC(C)(C)C)c4ccccc4)C[C@@](O)([C@@H](OC(=O)c4ccccc4)[C@H]21)C3(C)C [Docetaxel]

SMILES: CN(C)C(=O)C(CCN1CCC(O)(c2ccc(Cl)cc2)CC1)(c1ccccc1)c1ccccc1 [Loperamide]
Effect on mouse hot-plate escape time [2]: no effect

SMILES: CC(=O)O[C@H]1C(=O)[C@@]2(C)[C@H]([C@H](OC(=O)c3ccccc3)[C@]3(O)C[C@H](OC(=O)[C@H](O)[C@@H](NC(=O)c4ccccc4)c4ccccc4)C(C)=C1C3(C)C)[C@]1(OC(C)=O)CO[C@@H]1C[C@@H]2O [Paclitaxel]
AUC(0-t) [3]: 67 ng·h/mL
half-life ([3]; read-out: Paclitaxel mean terminal phase half-life (t1/2) (converted)): 3.9 h
Cmax ([1]; control of the OCFB series): 99 ng/mL
AUC(0-t) ([1]; control of the OCFB series): 266 ng·h/mL
Cmax ([1]; control of the OCM series): 75 ng/mL
AUC(0-t) ([1]; control of the OCM series): 189 ng·h/mL
In vivo tumor growth compared to the vehicle control (MDA/LCC6^MDR1 tumors): no significant effect
Lethality (tumor-bearing mice): 50%
Tumor growth / tumor formation (tumor-bearing mice): significantly inhibited tumor growth, but did not completely prevent tumor formation at any injection site
Survival [4]: 0/4

Saquinavir Concentration in Brain [5]: BLQ (3×) and 1.40 ng/mL
Saquinavir Concentration in CSF [5]: BLQ
concentration at 30 min ([5]; male, Sprague Dawley, rat, brain, oral, 20 mg/kg): 1.4 ng/mL
concentration at 0.25 hr (in vivo; Concentration of Saquinavir in plasma, 0.25 hr Post-Dose, Mean): 84.6 ng/mL
concentration at 0.5 hr (in vivo; Concentration of Saquinavir in plasma, 0.5 hr Post-Dose, Mean): 72.5 ng/mL
concentration at 1 hr (in vivo; Concentration of Saquinavir in plasma, 1 hr Post-Dose, Mean): 99.5 ng/mL
concentration at 2 hr (in vivo; Concentration of Saquinavir in plasma): 205 ng/mL
concentration at 2 hr (in vivo; Concentration of Saquinavir in plasma, Mean): 157 ng/mL
concentration at 4 hr (in vivo; Concentration of Saquinavir in plasma, 4 hr Post-Dose, Mean): 48.5 ng/mL
concentration at 8 hr (in vivo; Concentration of Saquinavir in plasma, 8 hr Post-Dose, Mean): 4.92 ng/mL
AUC(0-inf) (in vivo; po, 20 mg/kg): 524 ng·h/mL
AUC(0-t) (in vivo; po, 20 mg/kg): 514 ng·h/mL
CL/F (in vivo; po, 20 mg/kg): 654 mL/min/kg
Cmax (in vivo; po, 20 mg/kg): 181 ng/mL
Tmax (in vivo; po, 20 mg/kg): 1.6 h
Rats with slight salivation immediately following the saquinavir dose ([6]; Group 1 (ONT-093 pretreatment)): 3 of 4
Rats with slight salivation immediately following the saquinavir dose ([6]; Group 2 (vehicle pretreatment)): 2 of 4
Rats with slight salivation immediately following the saquinavir dose ([6]; Group 3 (ONT-093 pretreatment)): 3 of 4
Rats with slight salivation immediately following the saquinavir dose ([6]; Group 4 (vehicle pretreatment)): 4 of 4
SMILES: CC(C)(C)NC(=O)[C@@H]1C[C@@H]2CCCC[C@@H]2CN1C[C@@H](O)[C@H](Cc1ccccc1)NC(=O)[C@H](CC(N)=O)NC(=O)c1ccc2ccccc2n1 [Saquinavir]
